Laboratory results from patent US20120172344A1, “INSULIN-PRODUCING CELL INDUCER, GLUCOSE INTAKE ENHANCER, AND THERAPEUTIC AGENT FOR DIABETES OR DIABETES COMPLICATIONS” (KYUSHU UNIVERSITY, NATIONAL UNIVERSITY CORPORATION, priority 2009, published 2012).

Assays:
Format in all cases: in vivo, mouse
[1] = tested on: muscles (soleus muscle) of Tg23 mice; assay: Experimental Example 3: glucose (2-deoxy-D-glucose) intake of soleus muscles; settings: Tg mice, Tx-E group vs Ct group, 20-40 weeks after the administration
Protocol: Mice were sacrificed, and extensor digitorum longus (EDL) muscles and soleus muscles were quickly removed and processed. Both ends of each of the muscles were tied with suture (silk 4-0), and mounted on an incubation apparatus. First, the muscles were preincubated for 20 minutes in 6 ml of Krebs-Ringer bicarbonate (KRB) buffer (117 mM NaCl, 4.7 mM KCl, 2.5 mM CaCl2, 1.2 mM KH2PO4, 1.2 mM MgSO4, 24.6 mM NaHCO3, pH 7.5) containing 2 mM pyruvate. Then, the muscles were incubated in KRB buffer in presence or absence of insulin.
Immediately after muscle incubation, the muscles were transferred to KRB buffer containing 1 mM 2-deoxy-D-[^3H]glucose (1.5 μCi/ml) and 7 mM D-[^14C]mannitol (0.3 μCi/ml) (PerkinElmer Life Sciences) at 30° C., and incubated again for 10 minutes. When using insulin, a buffer containing insulin was used for incubation in a similar manner.
Glucose transport was terminated by dipping the muscles in KRB buffer containing 80 μmol/L cytochalasin B at 4° C., and then the muscles were frozen in liquid nitrogen. The muscles were weighed, and digested by incubating in 250 μl of 1 M NaOH at 80° C. for 10 minutes. Digests were neutralized with 250 μl of 1 M HCl. […] Radioactivity in aliquots of the digested muscle was determined by liquid scintillation counting for dual labels, and extracellular and intracellular spaces were calculated. […]

[2] = tested on: Tg23 mice (diabetic nephropathy); assay: Experimental Example 2: effect of estradiol on second to third stage of diabetic nephropathy
Protocol: (a) Albumin concentration: Albuwellkit (Exocell),
(b) Creatinine: High-performance liquid chromatography (HPLC), and
(c) Creatinine clearance (Ccr): calculated by the next formula.
Ccr=urine creatinine (mg/dL)×urine volume (μL/min)/serum creatinine (mg/dL)/body weight (g). [Math. 1]
50 glomeruli were analyzed for each of the mice. The total area of the glomeruli was measured in PAS-stained sections using Image-Pro Plus (Media Cybernetics). The PAS-positive area fraction was calculated as the ratio of PAS-positive area to glomerular sectional surface area. Glomerular number was measured by counting all of the glomeruli per mid-transverse section of left kidney for each of the mice.
For Tg23 mice, at 20-35 weeks of age, which is when reduction in renal functions and renal lesions are observed, a single pellet of 17β-estradiol was subcutaneously administered, and the effect of estradiol was investigated. […]
PAS staining, and immunostaining using the anti-collagen type IV antibody were performed on glomerular tissues from each of the mice (48 weeks of age), and the results of the staining are shown respectively in FIG. 2(1) and FIG. 2(2). […] The expression intensity was measured in random fields (n=30/section) of the glomerulus, and the result was expressed as average pixel intensity.

Tg23 mice = assay: Experimental Example 5: β-cell neogenesis and electron microscopy of pancreas
Protocol: Pancreases were fixed in 10% formalin, embedded in paraffin, and sliced into sections having a thickness of 2 μm. The sections were immunostained with overnight incubation at 4° C. in dilution solutions containing various primary antibodies described below.
Primary antibodies: Anti-insulin antibody (dilution rate 1:500; DAKO), anti-glucagon antibody (dilution rate 1:500; Linco Research Inc.), anti-DBA antibody (dilution rate 1:300; Vector Laboratories), anti-Pdx-1 antibody (dilution rate 1:1000; kindly provided by Chris V. E. Wright, Vanderbilt University), anti-collagen type IV antibody (dilution rate 1:250; PROGEN Biotechnik), and anti-Glut 4 antibody (dilution rate 1:1000; Chemicon).
The primary antibodies were detected by immunofluorescence labeling using secondary antibodies conjugated with Alexa 488 or Alexa 568 (1:200; Molecular Probes); third antibody conjugated with biotin-labeled secondary antibodies and streptavidin Alexa 488 or Alexa 568 (1:800; Vector Laboratories); or by an immunoperoxidase staining method using biotin-labeled secondary antibodies. Staining was visualized with diaminobenzidine. […] Immunofluorescence intensity was measured in random fields (n=30/section) using LSM Zeiss software, and the result was expressed as average pixel intensity.
All pancreatic islets, glucagon positive cells, and insulin-positive cells existing on a single pancreas section were photographed on a Keyence Biorevo microscope, and five to seven sections corresponding to areas that are at least 150 μm apart from one another were evaluated for a single pancreas (a single group includes five to eight males and six to nine females). Areas of β-cells and pancreatic islets were measured for each of the sections using Image Joint and Dynamic Cell Count software (Keyence). […]
Experimental Example 5: Effect of estradiol administration (III) Tg23 mice (23-24 weeks of age) were divided into two groups (each group: n=4 to 10): an estradiol administration group and a control group. […] Then, blood glucose levels of these mice were monitored every week. […]

## C[C@]12CC[C@@H]3c4ccc(O)cc4CC[C@H]3[C@@H]1CC[C@@H]2O [estradiol, 17β-estradiol]
[1]
  amount of glucose intake of muscles: significantly increases
[2]; Tg23 mice treated at 24 weeks of age (Tx + single 17β-estradiol pellet s.c.), tissues at 48 weeks of age
  sclerosis of the glomeruli (PAS staining, collagen IV immunostaining): alleviated to a degree not different from wild-type mice
[2]; Tg23 mice, second stage of diabetic nephropathy (early nephropathia stage), Tx + single 17β-estradiol pellet s.c.
  renal functions and renal tissues (GFR, Ualb/Cr, kidney weight, urinary glucose, urine volume): dramatically improves
Tg23 mice; Tg23 mice 23-24 weeks of age, Tx+E group vs Tg group
  neogenesis of β-cells (insulin-producing cells and Pdx-1 in pancreatic duct epithelial cells): enhanced
Tg23 mice; Treatment group, 48 weeks of age, electron microscope
  mature β-cells: formed
Tg23 mice; Tx+E group (Treatment), 48 weeks of age
  insulin secretory granules in pancreatic tissue (electron microscope): observed
